Columns and labels:
TRPM-1 promoter = test: SK-MEL-5 TRPM-1 luciferase reporter (TRPM-1 promoter activity assay); format: cell-based; conditions: Homo sapiens; SK-MEL-5 TRPM-1:luc cells, 24 hours, SteadyGlo; read-out: Target Potency IC50 (μM) TRPM1
Method: The TRPM1 luciferase promoter construct was transfected into the SK-MEL-5 melanoma cell line and a stable cell line was generated. This promoter is exquisitely sensitive to MITF over-expression and suppression and contains three canonical E-box motifs within the cloned promoter fragment (17). On day 0, cells were plated at 2,000 cells per well into white, opaque 384 well plates in phenol red-free media. On day 1, cells were treated with compounds or positive control for 24 hours. On day 2, 20 uL of SteadyGlo (Promega) was added per well and luminescence signal was determined with the Perkin-Elmer EnVision plate reader. Primary HTS data were analyzed in Genedata Screener Assay Analyzer. All values were normalized against DMSO treated samples and the positive control (18 μM parthenolide, CID 6473881). For the HTS, the average of two replicates was used to rank order activity and to choose compounds for retests. For dose studies, percent (%) activity was determined for each concentration and the concentration response curves (CRCs) were generated with Genedata Screener's Condoseo.
SK-MEL-5/TRPM1Luc cells were maintained in DMEM (10% FBS, 1% Pen-Strep-Glutamine, 250 ug/mL Hygromycin). […]
Day 3 • 5. […] Read on the Perkin-Elmer EnVision plate reader with ultra-sensitive luminescence (US LUM) settings for 0.5 sec per well SK-MEL-5 Cytotoxicity Assay (2084-02)

[1] = tested on: primary human melanocytes; test: Cell proliferation/viability assay of primary human melanocytes; format: cell-based; conditions: Melanocyte, 24 hours, CellTiter-Glo
Method: Primary human neonatal melanocytes were isolated from discarded foreskins by gentle dispase treatment and grown in Ham's F10 media supplemented with 7% FBS, penicillin/streptomycin/glutamine, 0.1 mM methyl-3-(2-methylpropyl)-7H-1-purine-2,6-dione (IBMX), 50 ng/mL 12-tetradecanoylphorbol 13-acetate (TPA), 1 μM Na3VO4 and 1 μM N(6),2′-O-dibutyryladenosine 3′:5′ cyclic monophosphate (dbcAMP). Cells were plated at 4,000 cells per well of a 384 well plate. On the following day, 10 nL of compound was added per well and incubated for 24 hours. The compounds were tested at different concentrations to determine IC50 values. At the end of compound treatment, cell viability was measured with CellTiter-Glo (Promega) and luminescence measured with the PerkinElmer EnVision plate reader. Data were normalized against DMSO in Genedata Screener's Assay Analyzer.
Primary human neonatal melanocytes were isolated from discarded foreskins by gentle dispase treatment and grown in TIVA media (Ham's F10 media supplemented with 7% FBS, penicillin/streptomycin/glutamine, 0.1 mM IBMX, 50 ng/mL TPA, […]). […]
Day 3 • 5. […] Read on the Perkin-Elmer EnVision plate reader with luminescence (LUM) settings for 0.1 sec per well. qPCR Assay for Target Gene Expression (MITF: 2084-05, TRPM1: 2084-09, CDK2: 2084-11, DCT: 2084-12, MLANA: 2084-13)

Dopamine D3 = target: T1, Dopamine D3 (Homo sapiens, UniProt P35462); test: Radioligand binding, Dopamine D3
T1 construct: Eurofins Panlabs, Inc. (contract assay)

Adrenergic β1 = target: T2, Adrenergic β1 (Homo sapiens, UniProt P08588); test: Radioligand binding, Adrenergic β1
T2 construct: Eurofins Panlabs, Inc. (contract assay)

Muscarinic M3 = target: T3, Muscarinic M3 (Homo sapiens, UniProt P20309); test: Radioligand binding, Muscarinic M3
T3 construct: Eurofins Panlabs, Inc

Adrenergic α1D = target: T4, Adrenergic α1D (Homo sapiens, UniProt P25100); test: Radioligand binding, Adrenergic α1D
T4 construct: Eurofins Panlabs, Inc. (contract assay)

[2] = target: T5, Serotonin (5-Hydroxytryptamine) 5-HT3 (Homo sapiens, UniProt P46098); test: Radioligand binding, Serotonin (5-Hydroxytryptamine) 5-HT3
T5 construct: Eurofins Panlabs

Dopamine D4.2 = target: T6, Dopamine D4.2 (Homo sapiens, UniProt P21917, DEL265-296); test: Radioligand binding, Dopamine D4.2
T6 construct: Eurofins Panlabs, Inc. (contract assay)

Histamine H3 = target: T7, Histamine H3 (Homo sapiens, UniProt Q9Y5N1); test: Radioligand binding, Histamine H3
T7 construct: Eurofins Panlabs, Inc

Melatonin MT1 = target: T8, Melatonin MT1 (Homo sapiens, UniProt P48039); test: Radioligand binding, Melatonin MT1
T8 construct: Eurofins Panlabs, Inc
T8 sequence (P48039 whole entry): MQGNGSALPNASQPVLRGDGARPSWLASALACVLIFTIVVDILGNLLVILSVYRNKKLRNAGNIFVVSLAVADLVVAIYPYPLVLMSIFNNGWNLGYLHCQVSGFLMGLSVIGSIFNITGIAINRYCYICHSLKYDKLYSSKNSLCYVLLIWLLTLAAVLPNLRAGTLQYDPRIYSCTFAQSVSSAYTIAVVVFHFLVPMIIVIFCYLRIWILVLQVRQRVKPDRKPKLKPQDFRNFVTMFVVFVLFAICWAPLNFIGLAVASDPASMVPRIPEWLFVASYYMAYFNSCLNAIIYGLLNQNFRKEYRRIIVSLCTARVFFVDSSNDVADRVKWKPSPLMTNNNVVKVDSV

T5 sequence (P46098 24-478): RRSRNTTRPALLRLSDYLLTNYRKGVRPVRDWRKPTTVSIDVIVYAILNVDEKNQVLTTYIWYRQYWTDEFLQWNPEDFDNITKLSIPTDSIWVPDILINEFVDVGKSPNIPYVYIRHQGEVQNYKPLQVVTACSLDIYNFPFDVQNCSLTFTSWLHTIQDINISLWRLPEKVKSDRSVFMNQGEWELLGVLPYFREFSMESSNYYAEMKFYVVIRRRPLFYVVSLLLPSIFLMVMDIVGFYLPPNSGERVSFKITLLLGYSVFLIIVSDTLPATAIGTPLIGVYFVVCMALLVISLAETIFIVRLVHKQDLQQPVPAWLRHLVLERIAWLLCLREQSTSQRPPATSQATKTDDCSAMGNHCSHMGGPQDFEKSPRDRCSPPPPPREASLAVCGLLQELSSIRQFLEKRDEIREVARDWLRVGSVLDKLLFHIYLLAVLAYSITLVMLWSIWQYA
T7 sequence (Q9Y5N1 whole entry): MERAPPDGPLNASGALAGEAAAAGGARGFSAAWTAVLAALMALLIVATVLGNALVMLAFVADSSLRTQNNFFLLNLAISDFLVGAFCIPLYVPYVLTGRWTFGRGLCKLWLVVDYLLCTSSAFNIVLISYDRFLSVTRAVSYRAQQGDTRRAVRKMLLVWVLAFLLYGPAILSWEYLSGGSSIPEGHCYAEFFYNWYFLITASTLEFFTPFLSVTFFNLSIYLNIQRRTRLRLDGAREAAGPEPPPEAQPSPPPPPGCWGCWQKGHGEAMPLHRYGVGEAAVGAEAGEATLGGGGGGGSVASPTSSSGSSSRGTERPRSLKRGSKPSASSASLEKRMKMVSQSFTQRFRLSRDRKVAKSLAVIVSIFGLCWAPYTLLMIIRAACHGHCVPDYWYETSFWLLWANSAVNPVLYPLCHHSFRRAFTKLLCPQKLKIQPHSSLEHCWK
T1 sequence (P35462 whole entry): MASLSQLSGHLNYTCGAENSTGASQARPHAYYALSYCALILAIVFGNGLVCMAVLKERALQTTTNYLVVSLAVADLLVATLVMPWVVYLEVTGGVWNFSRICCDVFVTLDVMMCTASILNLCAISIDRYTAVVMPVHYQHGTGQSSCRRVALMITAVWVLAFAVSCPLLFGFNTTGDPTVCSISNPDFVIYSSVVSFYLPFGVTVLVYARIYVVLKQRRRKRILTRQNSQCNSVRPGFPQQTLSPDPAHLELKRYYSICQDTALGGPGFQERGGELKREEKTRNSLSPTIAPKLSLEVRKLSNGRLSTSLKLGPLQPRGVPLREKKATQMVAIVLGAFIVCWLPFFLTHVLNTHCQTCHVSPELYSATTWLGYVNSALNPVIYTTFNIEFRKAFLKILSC
T6 sequence (P21917 with tags, fused parts or gaps DEL265-296): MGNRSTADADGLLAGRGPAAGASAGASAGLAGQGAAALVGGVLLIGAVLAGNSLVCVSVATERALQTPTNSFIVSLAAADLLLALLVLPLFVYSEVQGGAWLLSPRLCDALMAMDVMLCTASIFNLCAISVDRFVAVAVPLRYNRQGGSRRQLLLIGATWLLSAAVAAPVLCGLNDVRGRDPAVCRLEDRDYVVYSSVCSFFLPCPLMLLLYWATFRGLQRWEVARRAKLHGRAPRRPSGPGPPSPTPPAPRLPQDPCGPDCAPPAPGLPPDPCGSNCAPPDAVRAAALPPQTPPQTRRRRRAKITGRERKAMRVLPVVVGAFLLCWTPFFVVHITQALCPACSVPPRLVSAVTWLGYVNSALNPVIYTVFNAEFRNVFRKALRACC
T3 sequence (P20309 whole entry): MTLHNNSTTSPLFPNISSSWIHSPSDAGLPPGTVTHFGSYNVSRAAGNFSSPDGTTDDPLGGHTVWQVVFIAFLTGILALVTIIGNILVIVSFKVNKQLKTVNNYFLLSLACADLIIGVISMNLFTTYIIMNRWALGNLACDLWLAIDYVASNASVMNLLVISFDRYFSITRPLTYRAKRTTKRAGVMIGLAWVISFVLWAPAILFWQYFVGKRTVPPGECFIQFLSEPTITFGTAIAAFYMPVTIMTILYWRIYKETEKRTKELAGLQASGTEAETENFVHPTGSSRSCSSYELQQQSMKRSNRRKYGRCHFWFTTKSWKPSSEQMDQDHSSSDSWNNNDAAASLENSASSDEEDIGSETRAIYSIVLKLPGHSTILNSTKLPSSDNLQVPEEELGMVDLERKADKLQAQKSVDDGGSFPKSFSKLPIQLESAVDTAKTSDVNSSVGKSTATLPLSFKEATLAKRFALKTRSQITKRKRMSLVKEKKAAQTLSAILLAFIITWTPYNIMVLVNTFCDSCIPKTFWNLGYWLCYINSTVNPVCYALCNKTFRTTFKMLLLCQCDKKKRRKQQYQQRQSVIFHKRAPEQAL
T2 sequence (P08588 whole entry): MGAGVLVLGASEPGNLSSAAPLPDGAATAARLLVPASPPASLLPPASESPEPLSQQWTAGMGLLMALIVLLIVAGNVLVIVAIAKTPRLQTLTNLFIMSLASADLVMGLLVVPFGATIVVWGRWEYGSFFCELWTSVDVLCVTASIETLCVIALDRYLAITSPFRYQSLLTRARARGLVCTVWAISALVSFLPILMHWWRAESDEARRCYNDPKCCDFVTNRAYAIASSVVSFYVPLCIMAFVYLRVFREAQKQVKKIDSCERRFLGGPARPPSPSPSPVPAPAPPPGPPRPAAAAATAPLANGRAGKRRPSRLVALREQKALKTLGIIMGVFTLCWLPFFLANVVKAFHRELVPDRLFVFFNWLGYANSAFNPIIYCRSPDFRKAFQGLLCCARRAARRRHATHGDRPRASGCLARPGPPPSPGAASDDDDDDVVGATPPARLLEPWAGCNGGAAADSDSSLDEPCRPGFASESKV
T4 sequence (P25100 whole entry): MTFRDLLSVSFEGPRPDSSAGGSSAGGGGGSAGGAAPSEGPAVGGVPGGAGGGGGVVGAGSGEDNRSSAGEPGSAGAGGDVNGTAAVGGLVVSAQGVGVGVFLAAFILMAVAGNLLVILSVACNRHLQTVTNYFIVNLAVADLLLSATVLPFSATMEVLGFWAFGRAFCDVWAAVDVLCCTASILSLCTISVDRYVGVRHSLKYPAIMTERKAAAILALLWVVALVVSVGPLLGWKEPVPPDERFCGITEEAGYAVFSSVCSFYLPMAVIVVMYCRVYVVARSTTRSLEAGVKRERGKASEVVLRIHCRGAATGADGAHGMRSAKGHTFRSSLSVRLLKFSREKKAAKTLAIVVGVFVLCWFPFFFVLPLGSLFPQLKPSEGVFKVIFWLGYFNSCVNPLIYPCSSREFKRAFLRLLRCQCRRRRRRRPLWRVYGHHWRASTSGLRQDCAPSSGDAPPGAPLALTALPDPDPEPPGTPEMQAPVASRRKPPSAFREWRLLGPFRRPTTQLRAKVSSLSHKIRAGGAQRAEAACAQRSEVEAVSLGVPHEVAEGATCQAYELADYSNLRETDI

Row | SMILES | IC50 (TRPM-1 promoter) [µM] | IC50 [1] [µM] | inhibition at 10 µM (Dopamine D3) [%] | inhibition at 10 µM (Adrenergic β1) [%] | inhibition at 10 µM (Muscarinic M3) [%] | inhibition at 10 µM (Adrenergic α1D) [%] | inhibition at 10 µM [2] [%] | inhibition at 10 µM (Dopamine D4.2) [%] | inhibition at 10 µM (Histamine H3) [%] | inhibition at 10 µM (Melatonin MT1) [%]
1 | NS(=O)(=O)c1ccc(NC2=CC(=O)c3ccccc3C2=O)cc1 [4-((1,4-dioxo-1,4-dihydronaphthalen-2-yl)amino)benzenesulfonamide] | 1.2 | 7.14 |  |  |  |  |  |  |  | 
2 | NS(=O)(=O)c1ccc(NC2=CC(=O)c3ccccc3C2=O)cc1 [Example 1, 4-((1,4-Dioxo-1,4-dihydronaphthalen-2-yl)amino)benzenesulfonamide] |  |  | 9 | 20 | 22 | 21 | 5 | 4 | -5 | 9

Reference: patent US9745261B2, “Inhibitors of the MITF molecular pathway” (THE GENERAL HOSPITAL CORPORATION, priority 2013, dated 2017)
